Where “and” joins values, the source holds several entries; their conditions need not be identical. Equal entries are not always repeated. Where two headings read alike, the source gives them in different places.
Test system: mtrC-lacZ expression
Format: cell-based, Neisseria gonorrhoeae
Details: for mtrC-lacZ β-galactosidase activity, Mean: left block of sheet (mtrCDE); for β-galactosidase activity, Mean: second (right) untitled block of sheet Figure S10 (mtrC); for β-galactosidase activity, mtrC-lacZ, Mean: strain ΔmtrR + mtrR WT (pGCC3-mtrR); for Plate-6 (Testosterone) Miller units, Mean: upper four plate rows; for Miller units, Mean: right block Plate-4
[1] = strain ΔmtrR + mtrR R176E, 50 µM hormone
[2] = strain ΔmtrR + mtrR WT, 25 µM hormone
[3] = strain ΔmtrR + mtrR WT, 50 µM hormone

## C[C@]12CC[C@H]3[C@@H](CCC4=CC(=O)CC[C@@]43C)[C@@H]1CC[C@@H]2O [Testosterone, testosterone]
[1]
  mtrC-lacZ β-galactosidase activity, Mean: 224 Miller units
  β-galactosidase activity, Mean: 83 Miller units
Strain ΔmtrR + mtrR R176E, 100 µM hormone
  mtrC-lacZ β-galactosidase activity, Mean: 238 Miller units
Hormone 6.25 µM
  β-galactosidase activity, mtrC-lacZ, Mean: 125 Miller units
Hormone 12.5 µM
  β-galactosidase activity, mtrC-lacZ, Mean: 130 Miller units
Hormone 25 µM
  β-galactosidase activity, mtrC-lacZ, Mean: 133 Miller units
Hormone 50 µM
  β-galactosidase activity, mtrC-lacZ, Mean: 152 Miller units
Strain ΔmtrR + mtrR WT, 1 µM hormone
  mtrC-lacZ β-galactosidase activity, Mean: 107 Miller units
Strain ΔmtrR + mtrR WT, 6.25 µM hormone
  β-galactosidase activity, Mean: 45 Miller units
Strain ΔmtrR + mtrR WT, 10 µM hormone
  mtrC-lacZ β-galactosidase activity, Mean: 177 Miller units
Strain ΔmtrR + mtrR WT, 12.5 µM hormone
  β-galactosidase activity, Mean: 50 Miller units
[2]
  mtrC-lacZ β-galactosidase activity, Mean: 181 Miller units
  β-galactosidase activity, Mean: 70 Miller units
[3]
  mtrC-lacZ β-galactosidase activity, Mean: 213 Miller units
  β-galactosidase activity, Mean: 74 Miller units
Strain ΔmtrR + mtrR WT, 100 µM hormone
  mtrC-lacZ β-galactosidase activity, Mean: 227 Miller units
Strain ΔmtrR, 1 µM hormone
  mtrC-lacZ β-galactosidase activity, Mean: 334 Miller units
Strain ΔmtrR, 6.25 µM hormone
  β-galactosidase activity, Mean: 146 Miller units
Strain ΔmtrR, 10 µM hormone
  mtrC-lacZ β-galactosidase activity, Mean: 358 Miller units
Strain ΔmtrR, 12.5 µM hormone
  β-galactosidase activity, Mean: 153 Miller units
Strain ΔmtrR, 25 µM hormone
  β-galactosidase activity, Mean: 155 Miller units
Strain ΔmtrR, 50 µM hormone
  mtrC-lacZ β-galactosidase activity, Mean: 284 Miller units
  β-galactosidase activity, Mean: 141 Miller units
Strain ΔmtrR, 100 µM hormone
  mtrC-lacZ β-galactosidase activity, Mean: 369 Miller units
Testosterone 6.25 µM, plate column 3
  Plate-6 (Testosterone) Miller units, Mean: 69 Miller units
Testosterone 6.25 µM, plate column 9 (second strain set, columns 7-12)
  Plate-6 (Testosterone) Miller units, Mean: 96 Miller units
Testosterone 12.5 µM, plate column 4
  Plate-6 (Testosterone) Miller units, Mean: 81 Miller units
Testosterone 12.5 µM, plate column 10 (second strain set, columns 7-12)
  Plate-6 (Testosterone) Miller units, Mean: 102 Miller units
Testosterone 25 µM, plate column 5
  Plate-6 (Testosterone) Miller units, Mean: 98 Miller units
Testosterone 25 µM, plate column 11 (second strain set, columns 7-12)
  Plate-6 (Testosterone) Miller units, Mean: 112 Miller units
Testosterone 50 µM, plate column 6
  Plate-6 (Testosterone) Miller units, Mean: 117 Miller units
Testosterone 50 µM, plate column 12 (second strain set, columns 7-12)
  Plate-6 (Testosterone) Miller units, Mean: 119 Miller units
Third strain (lower plate half, wells 1-6; not named), testosterone 6.25 µM
  Miller units, Mean: 45 Miller units
Third strain (lower plate half, wells 1-6; not named), testosterone 12.5 µM
  Miller units, Mean: 50 Miller units
Third strain (lower plate half, wells 1-6; not named), testosterone 25 µM
  Miller units, Mean: 70 Miller units
Third strain (lower plate half, wells 1-6; not named), testosterone 50 µM
  Miller units, Mean: 74 Miller units
ΔmtrR (by plate layout), testosterone 6.25 µM
  Miller units, Mean: 146 Miller units
ΔmtrR (by plate layout), testosterone 12.5 µM
  Miller units, Mean: 153 Miller units
ΔmtrR (by plate layout), testosterone 25 µM
  Miller units, Mean: 155 Miller units
ΔmtrR (by plate layout), testosterone 50 µM
  Miller units, Mean: 141 Miller units
ΔmtrR + mtrR WT in trans, 1 µM, first data set (c15-c36)
  β-galactosidase activity, Miller units (single replicate): 95 Miller units and 106 Miller units
ΔmtrR + mtrR WT in trans, 6.25 µM, second data set (c53-c74)
  β-galactosidase activity, Miller units (single replicate): 36 Miller units and 39 Miller units and 65 Miller units and 38 Miller units
ΔmtrR + mtrR WT in trans, 10 µM, first data set (c15-c36)
  β-galactosidase activity, Miller units (single replicate): 167 Miller units and 179 Miller units
ΔmtrR + mtrR WT in trans, 12.5 µM, second data set (c53-c74)
  β-galactosidase activity, Miller units (single replicate): 52 Miller units and 40 Miller units and 64 Miller units and 45 Miller units
ΔmtrR + mtrR WT in trans, 25 µM, first data set (c15-c36)
  β-galactosidase activity, Miller units (single replicate): 181 Miller units and 185 Miller units
ΔmtrR + mtrR WT in trans, 25 µM, second data set (c53-c74)
  β-galactosidase activity, Miller units (single replicate): 72 Miller units and 60 Miller units and 77 Miller units
ΔmtrR + mtrR WT in trans, 50 µM, first data set (c15-c36)
  β-galactosidase activity, Miller units (single replicate): 185 Miller units and 193 Miller units
ΔmtrR + mtrR WT in trans, 50 µM, second data set (c53-c74)
  β-galactosidase activity, Miller units (single replicate): 89 Miller units and 62 Miller units and 81 Miller units and 65 Miller units
ΔmtrR + mtrR WT in trans, 100 µM, first data set (c15-c36)
  β-galactosidase activity, Miller units (single replicate): 195 Miller units and 175 Miller units
ΔmtrR, 1 µM, first data set (c15-c36)
  β-galactosidase activity, Miller units (single replicate): 360 Miller units and 326 Miller units and 318 Miller units
ΔmtrR, 6.25 µM, second data set (c53-c74)
  β-galactosidase activity, Miller units (single replicate): 213 Miller units and 147 Miller units and 123 Miller units and 100 Miller units
ΔmtrR, 10 µM, first data set (c15-c36)
  β-galactosidase activity, Miller units (single replicate): 393 Miller units and 347 Miller units and 355 Miller units and 336 Miller units
ΔmtrR, 12.5 µM, second data set (c53-c74)
  β-galactosidase activity, Miller units (single replicate): 202 Miller units and 175 Miller units and 120 Miller units and 117 Miller units
ΔmtrR, 25 µM, first data set (c15-c36)
  β-galactosidase activity, Miller units (single replicate): 325 Miller units and 289 Miller units and 330 Miller units and 304 Miller units
ΔmtrR, 25 µM, second data set (c53-c74)
  β-galactosidase activity, Miller units (single replicate): 194 Miller units and 180 Miller units and 119 Miller units and 125 Miller units
ΔmtrR, 50 µM, first data set (c15-c36)
  β-galactosidase activity, Miller units (single replicate): 298 Miller units and 287 Miller units and 282 Miller units and 269 Miller units
ΔmtrR, 50 µM, second data set (c53-c74)
  β-galactosidase activity, Miller units (single replicate): 175 Miller units and 157 Miller units and 99 Miller units
ΔmtrR, 100 µM, first data set (c15-c36)
  β-galactosidase activity, Miller units (single replicate): 429 Miller units and 358 Miller units and 309 Miller units and 379 Miller units
